In experiment [1] the target is human HSP90 alpha protein (HSP90 N-terminal protein, amino acids 2-236) (Homo sapiens (Human), UniProt P07900). Kind of experiment: Measurement of HSP90-binding activity (AlphaScreen competitive assay, biotin-labeled geldanamycin). Conditions: concentration inhibiting binding of biotin-labeled geldanamycin (40 nM) to purified HSP90 to 50% of control; read-out: HSP-binding activity IC50. Background: Bead proximity is the source of the signal in Alpha formats.

Another experiment concerns SK-BR-3 cells. The experiment is described as follows: Measurement of cell growth inhibition (crystal violet staining method). To be noted: Homo sapiens. It is filed as cell-based.
The mark [2] stands for this setting: breast cancer SK-BR-3 cells, 72 hr culture with test substance.

pIC50: −log10 of the molar value.

One may read the pIC50 as −log10 of the IC50, conventionally taken in molar units. Consider `CC(C)c1nn(-c2ccc(C(N)=O)c(NCCc3ccccn3)c2)c2nccc(-c3cnc4ccccc4c3)c12` [Example 28, 4-{3-Isopropyl-4-(quinolin-3-yl)-1H-pyrazolo[3,4-b]pyridin-1-yl}-2-{2-(pyridin-2-yl)ethylamino}benzamide], for which the negative-log IC50 (pIC50) in experiment [1] is 6.40; in the experiment with SK-BR-3 cells (setting [2]), 6.55.

For `CC(C)c1nn(-c2ccc(C(N)=O)c(NCCCN(C)C)c2)c2nccc(-c3cnc4ccccc4c3)c12` [Example 29, 2-{3-(Dimethylamino)propylamino}-4-{3-isopropyl-4-(quinolin-3-yl)-1H-pyrazolo[3,4-b]pyridin-1-yl}benzamide], the negative logarithm of the IC50 (pIC50) in experiment [1] is 6.49; in the experiment with SK-BR-3 cells (setting [2]), 6.62.

As for `CC(C)c1nn(-c2ccc(C(N)=O)c(NCCN3CCOCC3)c2)c2nccc(-c3cnc4ccccc4c3)c12` [Example 31, 4-{3-Isopropyl-4-(quinolin-3-yl)-1H-pyrazolo[3,4-b]pyridin-1-yl}-2-(2-morpholinoethylamino)benzamide], the negative-log IC50 (pIC50) is 6.48 in experiment [1] and 7.00 with SK-BR-3 cells (setting [2]).

On to `CC(C)c1nn(-c2ccc(C(N)=O)c(Nc3ccc(N4CCOCC4)cc3)c2)c2nccc(-c3cnc4ccccc4c3)c12` [Example 33, 4-{3-Isopropyl-4-(quinolin-3-yl)-1H-pyrazolo[3,4-b]pyridin-1-yl}-2-(4-morpholinophenylamino)benzamide], for which the results for the negative-log IC50 (pIC50) (in experiment [1]; with SK-BR-3 cells (setting [2])) were 5.94 and 7.15, respectively.

Turning to `CC(C)c1nn(-c2ccc(C(N)=O)c(Nc3ccc(C(=O)N4CCCC4)cc3)c2)c2nccc(-c3cnc4ccccc4c3)c12` [Example 34, 4-{3-Isopropyl-4-(quinolin-3-yl)-1H-pyrazolo[3,4-b]pyridin-1-yl}-2-{4-(pyrrolidine-1-carbonyl)phenylamino}benzamide], the pIC50 in experiment [1] is 6.24; in the experiment on SK-BR-3 cells (setting [2]), 7.30.

Take `CC(C)c1nn(-c2ccc(C(N)=O)c(Nc3ccc(CN4CCCC4)cc3)c2)c2nccc(-c3cnc4ccccc4c3)c12` [Example 35, 4-{3-Isopropyl-4-(quinolin-3-yl)-1H-pyrazolo[3,4-b]pyridin-1-yl}-2-{4-(pyrrolidin-1-ylmethyl)phenylamino}benzamide]: the pIC50 was 5.82 in experiment [1] and 6.55 in the experiment with SK-BR-3 cells (setting [2]).

On to `CC(C)c1nn(-c2ccc(C(N)=O)c(N[C@H]3CC[C@H](O)CC3)c2)c2nccc(-n3ccnc3)c12` [Example 36, 4-{4-(1H-Imidazol-1-yl)-3-isopropyl-1H-pyrazolo[3,4-b]pyridin-1-yl}-2-(trans-4-hydroxycyclohexylamino)benzamide], for which the negative logarithm of the IC50 (pIC50) in experiment [1] was 5.73; with SK-BR-3 cells (setting [2]), 5.49.

On to `CC(C)c1nn(-c2ccc(C(N)=O)c(N[C@H]3CC[C@H](O)CC3)c2)c2nccc(-n3cnc(-c4ccccc4)c3)c12` [Example 37, 2-(Trans-4-hydroxycyclohexylamino)-4-{3-isopropyl-4-(4-phenyl-1H-imidazol-1-yl)-1H-pyrazolo[3,4-b]pyridin-1-yl}benzamide], for which the pIC50 in experiment [1] was 6.60; in the experiment with SK-BR-3 cells (setting [2]), 7.00.

For the compound `CC(C)c1nn(-c2ccc(C(N)=O)cc2Cl)c2nccc(-c3cnc4ccccc4c3)c12` [Example 38, 3-Chloro-4-{3-isopropyl-4-(quinolin-3-yl)-1H-pyrazolo[3,4-b]pyridin-1-yl}benzamide], the negative logarithm of the IC50 (pIC50) is 6.29 in experiment [1] and 6.17 with SK-BR-3 cells (setting [2]).

Regarding `Cc1cn(-c2ccc(C(N)=O)c(N[C@H]3CC[C@H](O)CC3)c2)c2nccc(-c3cnc4ccccc4c3)c12` [Example 40, 2-(Trans-4-hydroxycyclohexylamino)-4-{3-methyl-4-(quinolin-3-yl)-1H-pyrrolo[2,3-b]pyridin-1-yl}benzamide], the pIC50 is 6.57 in experiment [1] and 7.05 in the experiment on SK-BR-3 cells (setting [2]).

For `CCc1cn(-c2ccc(C(N)=O)c(N[C@H]3CC[C@H](O)CC3)c2)c2nccc(-c3cnc4ccccc4c3)c12` [Example 41, 4-{3-Ethyl-4-(quinolin-3-yl)-1H-pyrrolo[2,3-b]pyridin-1-yl}-2-(trans-4-hydroxycyclohexylamino)benzamide], the figures for the negative logarithm of the IC50 (pIC50) (in experiment [1]; in the experiment with SK-BR-3 cells (setting [2])) were 6.92 and 7.52, respectively.

Consider `CCc1cn(-c2ccc(C(N)=O)c(N[C@H]3CC[C@H](OC(=O)CN)CC3)c2)c2nccc(-c3cnc4ccccc4c3)c12` [Example 42, Trans-4-{2-carbamoyl-5-{3-ethyl-4-(quinolin-3-yl)-1H-pyrrolo[2,3-b]pyridin-1-yl}phenylamino}cyclohexyl-2-aminoacetate dimethanesulfonate], for which the pIC50 in experiment [1] is 6.72; with SK-BR-3 cells (SK-BR-3, 72 h) it was 7.52.

Regarding `NC(=O)c1ccc(-n2cc(C(F)(F)F)c3c(-c4cnc5ccccc5c4)ccnc32)cc1N[C@H]1CC[C@H](O)CC1` [Example 43, 2-(Trans-4-hydroxycyclohexylamino)-4-{4-(quinolin-3-yl)-3-(trifluoromethyl)-1H-pyrrolo[2,3-b]pyridin-1-yl}benzamide], the pIC50 in experiment [1] is 7.00; in the experiment on SK-BR-3 cells (setting [2]), 8.00.

Turning to `NCC(=O)O[C@H]1CC[C@H](Nc2cc(-n3cc(C(F)(F)F)c4c(-c5cnc6ccccc6c5)ccnc43)ccc2C(N)=O)CC1` [Example 44, Trans-4-{2-carbamoyl-5-{4-(quinolin-3-yl)-3-(trifluoromethyl)-1H-pyrrolo[2,3-b]pyridin-1-yl}phenylamino}cyclohexyl-2-aminoacetate dimethanesulfonate], the negative logarithm of the IC50 (pIC50) in experiment [1] is 6.89; in the experiment on SK-BR-3 cells (SK-BR-3, 72 h) it was 8.00.

Consider `CCCc1cn(-c2ccc(C(N)=O)c(N[C@H]3CC[C@H](O)CC3)c2)c2nccc(-c3cnc4ccccc4c3)c12` [Example 45, 2-(Trans-4-hydroxycyclohexylamino)-4-{3-propyl-4-(quinolin-3-yl)-1H-pyrrolo[2,3-b]pyridin-1-yl}benzamide], for which the negative logarithm of the IC50 (pIC50) in experiment [1] was 7.05; in the experiment with SK-BR-3 cells (setting [2]), 8.00.

Take `C=Cc1cn(-c2ccc(C(N)=O)c(N[C@H]3CC[C@H](O)CC3)c2)c2nccc(-c3cnc4ccccc4c3)c12` [Example 46, 2-(Trans-4-hydroxycyclohexylamino)-4-{3-vinyl-4-(quinolin-3-yl)-1H-pyrrolo[2,3-b]pyridin-1-yl}benzamide]: the pIC50 is 6.82 in experiment [1] and 7.70 with SK-BR-3 cells (setting [2]).

On to `Cc1cn(-c2ccc(C(N)=O)c(NC3CCOCC3)c2)c2nccc(-c3cnc4ccccc4c3)c12` [Example 53, 2-(Tetrahydro-2H-pyran-4-ylamino)-4-{3-methyl-4-(quinolin-3-yl)-1H-pyrrolo[2,3-b]pyridin-1-yl}benzamide], for which the negative logarithm of the IC50 (pIC50) in experiment [1] was 6.46; in the experiment on SK-BR-3 cells (setting [2]) it was 6.70.

In the case of `Cc1cn(-c2ccc(C(N)=O)c(NCCCCO)c2)c2nccc(-c3cnc4ccccc4c3)c12` [Example 55, 2-(4-Hydroxybutylamino)-4-{3-methyl-4-(quinolin-3-yl)-1H-pyrrolo[2,3-b]pyridin-1-yl}benzamide], the pIC50 is 5.55 in experiment [1] and 6.04 with SK-BR-3 cells (setting [2]).

As for `Cc1cn(-c2ccc(C(N)=O)c(NCC(C)(C)O)c2)c2nccc(-c3cnc4ccccc4c3)c12` [Example 58, 2-(2-Hydroxy-2-methylpropylamino)-4-{3-methyl-4-(quinolin-3-yl)-1H-pyrrolo[2,3-b]pyridin-1-yl}benzamide], the negative-log IC50 (pIC50) in experiment [1] was 6.34; with SK-BR-3 cells (setting [2]) it was 6.68.

Turning to `Cc1cn(-c2ccc(C(N)=O)c(NCCCNC(C)C)c2)c2nccc(-c3cnc4ccccc4c3)c12` [Example 60, 2-[3-(Isopropylamino)propylamino]-4-{3-methyl-4-(quinolin-3-yl)-1H-pyrrolo[2,3-b]pyridin-1-yl}benzamide], the pIC50 was 5.86 in experiment [1] and 5.82 in the experiment with SK-BR-3 cells (setting [2]).

In the case of `CC(=O)N[C@H]1CC[C@H](Nc2cc(-n3cc(C)c4c(-c5cnc6ccccc6c5)ccnc43)ccc2C(N)=O)CC1` [Example 62, 2-(Trans-4-acetamidocyclohexylamino)-4-{3-methyl-4-(quinolin-3-yl)-1H-pyrrolo[2,3-b]pyridin-1-yl}benzamide], the results for the negative logarithm of the IC50 (pIC50) (in experiment [1]; in the experiment on SK-BR-3 cells (setting [2])) were 6.21 and 6.68, respectively.

With `CCc1cn(-c2ccc(C(N)=O)c(NC3CCCCC3N)c2)c2nccc(-c3cnc4ccccc4c3)c12` (stereo not drawn) [Example 70, 2-(2-Aminocyclohexylamino)-4-{3-ethyl-4-(quinolin-3-yl)-1H-pyrrolo[2,3-b]pyridin-1-yl}benzamide], the figures for the pIC50 (in experiment [1]; with SK-BR-3 cells (setting [2])) were 6.64 and 7.10, respectively.

In the case of `CCc1cn(-c2ccc(C(N)=O)c(NC3CCN(C)CC3)c2)c2nccc(-c3cnc4ccccc4c3)c12` [Example 71, 4-{3-Ethyl-4-(quinolin-3-yl)-1H-pyrrolo[2,3-b]pyridin-1-yl}-2-(1-methylpiperidin-4-ylamino)benzamide], the values for the negative-log IC50 (pIC50) (in experiment [1]; in the experiment on SK-BR-3 cells (setting [2])) were 6.60 and 7.00, respectively.

In the case of `CCc1cn(-c2ccc(C(N)=O)c(N[C@H]3CC[C@H](N)CC3)c2)c2nccc(-c3cnc4ccccc4c3)c12` [Example 72, 2-(Trans-4-aminocyclohexylamino)-4-{3-ethyl-4-(quinolin-3-yl)-1H-pyrrolo[2,3-b]pyridin-1-yl}benzamide], the pIC50 was 6.59 in experiment [1] and 6.96 in the experiment with SK-BR-3 cells (setting [2]).

On to `CCc1cn(-c2ccc(C(N)=O)c(NCCN3CCOCC3)c2)c2nccc(-c3cnc4ccccc4c3)c12` [Example 73, 4-{3-Ethyl-4-(quinolin-3-yl)-1H-pyrrolo[2,3-b]pyridin-1-yl}-2-(2-morpholinoethylamino)benzamide], for which the pIC50 is 6.23 in experiment [1] and 6.44 in the experiment on SK-BR-3 cells (setting [2]).

On to `CCc1cn(-c2ccc(C(N)=O)c(NCCCCO)c2)c2nccc(-c3cnc4ccccc4c3)c12` [Example 74, 4-{3-Ethyl-4-(quinolin-3-yl)-1H-pyrrolo[2,3-b]pyridin-1-yl}-2-(4-hydroxybutylamino)benzamide], for which the pIC50 in experiment [1] is 6.47; in the experiment on SK-BR-3 cells (setting [2]), 6.57.

For the compound `CCNCCNc1cc(-n2cc(CC)c3c(-c4cnc5ccccc5c4)ccnc32)ccc1C(N)=O` [Example 75, 4-{3-Ethyl-4-(quinolin-3-yl)-1H-pyrrolo[2,3-b]pyridin-1-yl}-2-{2-(ethylamino)ethylamino}benzamide], the results for the negative logarithm of the IC50 (pIC50) (in experiment [1]; in the experiment with SK-BR-3 cells (setting [2])) were 6.51 and 6.62, respectively.

The values are drawn from patent publication US8779142B2, “Azabicyclo compound and salt thereof” (Taiho Pharmaceutical Co., Ltd., priority 2009, dated 2014).
